Toxic doses and inconclusive results are not listed.

Consider 23 compounds from PubChem BioAssay AID248 (DTP/NCI, 2004).

The subject of this assay is L1210 leukemia ip in BDF1 mice, survival T/C. The assay can be described thus: NCI In Vivo Anticancer Drug Screen. Data for tumor model L1210 Leukemia (intraperitoneal) in B6D2F1 (BDF1) mice. The conditions noted are these: endpoint: mean survival time, higher = longer survival. The gist of the method:
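Antitumor effect is assessed in tumor-bearing animals. Survival in the compound arm is compared with a vehicle-dosed control arm and expressed as their quotient.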

Setting [1] is: dose: 100.0 mg/kg/injection, schedule: Q01DX001 (ip), vehicle: saline.
[2] abbreviates: dose: 200.0 mg/kg/injection, schedule: Q01DX001 (ip), vehicle: saline.
The mark [3] stands for this setting: dose: 400.0 mg/kg/injection, schedule: Q01DX001 (ip), vehicle: saline.
Where [4] appears, read: dose: 25.0 mg/kg/injection, schedule: Q01DX009 (ip), vehicle: saline with Tween-80.
Where [5] appears, read: dose: 100.0 mg/kg/injection, schedule: Q01DX001 (ip), vehicle: other.
[6] abbreviates: dose: 200.0 mg/kg/injection, schedule: Q01DX001 (ip), vehicle: other.
[7] abbreviates: dose: 400.0 mg/kg/injection, schedule: Q01DX001 (ip), vehicle: other.
Where [8] appears, read: dose: 100.0 mg/kg/injection, schedule: Q01DX001 (ip), vehicle: Klucel (hydroxypropylcellulose) (HPC).
Setting [9] is: dose: 100.0 mg/kg/injection, schedule: Q01DX009 (ip), vehicle: saline with Tween-80.
Setting [10] is: dose: 100.0 mg/kg/injection, schedule: Q01DX009 (ip), vehicle: Klucel (hydroxypropylcellulose) (HPC).
Setting [11] is: dose: 200.0 mg/kg/injection, schedule: Q01DX009 (ip), vehicle: Klucel (hydroxypropylcellulose) (HPC).
[12] abbreviates: dose: 200.0 mg/kg/injection, schedule: Q04DX003 (ip), vehicle: Klucel (hydroxypropylcellulose) (HPC).
The mark [13] stands for this setting: dose: 400.0 mg/kg/injection, schedule: Q01DX009 (ip), vehicle: Klucel (hydroxypropylcellulose) (HPC).
Where [14] appears, read: dose: 400.0 mg/kg/injection, schedule: Q04DX003 (ip), vehicle: Klucel (hydroxypropylcellulose) (HPC).
The mark [15] stands for this setting: dose: 100.0 mg/kg/injection, schedule: Q04DX003 (ip), vehicle: Klucel (hydroxypropylcellulose) (HPC).

As to `Cc1ccc(S(=O)(=O)Nc2c(N)nc(N)nc2-c2ccccc2)cc1`, the T/C reads like this: (dose: 80.0 mg/kg/injection, schedule: Q01DX001 (ip), vehicle: Klucel (hydroxypropylcellulose) (HPC)) 96 % of control; (dose: 160.0 mg/kg/injection, schedule: Q01DX001 (ip), vehicle: Klucel (hydroxypropylcellulose) (HPC)) 94 % of control; (dose: 320.0 mg/kg/injection, schedule: Q01DX001 (ip), vehicle: Klucel (hydroxypropylcellulose) (HPC)) 103 % of control.
In the case of `c1ccc(SCc2cccnc2)nc1`, the T/C is, setting by setting: under setting [1], 97 % of control; under setting [2], 88 % of control; under setting [3], 94 % of control.
For the compound `O=C1C2CC=CCC2C(=O)N1SC(Cl)(Cl)Cl` (stereo not given), the T/C is 107 % of control (dose: 0.78 mg/kg/injection, schedule: Q01DX009 (ip), vehicle: saline with Tween-80); 104 % of control (dose: 1.56 mg/kg/injection, schedule: Q01DX009 (ip), vehicle: saline with Tween-80); 103 % of control (dose: 3.12 mg/kg/injection, schedule: Q01DX009 (ip), vehicle: saline with Tween-80); 103 % of control (dose: 6.25 mg/kg/injection, schedule: Q01DX009 (ip), vehicle: saline with Tween-80); 97 % of control (dose: 12.5 mg/kg/injection, schedule: Q01DX009 (ip), vehicle: saline with Tween-80); 98 % of control under setting [4].
Turning to `O=[N+]([O-])c1c(Cl)cccc1-c1c[nH]cc1Cl`, the T/C is, setting by setting: under setting [5], 92 % of control; under setting [6], 90 % of control; under setting [7], 97 % of control.
As for `Nc1nc(/C=C/C=C/c2ccccc2)c(CCCCc2ccccc2)c(=O)[nH]1`, the T/C (dose: 25.0 mg/kg/injection, schedule: Q01DX001 (ip), vehicle: Klucel (hydroxypropylcellulose) (HPC)) was 94 % of control; the T/C (dose: 50.0 mg/kg/injection, schedule: Q01DX001 (ip), vehicle: Klucel (hydroxypropylcellulose) (HPC)) was 98 % of control; the T/C under setting [8] is 96 % of control.
As to `CSc1n[nH]c(=O)[nH]c1=O`, the T/C under setting [1] was 100 % of control, the T/C under setting [2] is 102 % of control and the T/C under setting [3] was 94 % of control.
For `c1ccc(C2=NC(c3ccccc3)N3CC23c2ccccc2)cc1` (stereo not given), the T/C is, setting by setting: under setting [8], 97 % of control; (dose: 200.0 mg/kg/injection, schedule: Q01DX001 (ip), vehicle: Klucel (hydroxypropylcellulose) (HPC)) 94 % of control.
For `Cc1cc(C(C)(C)C)c(Oc2ccc([N+](=O)[O-])cc2S(=O)(=O)O)c(C(C)(C)C)c1`, the T/C is, setting by setting: under setting [9], 86 % of control; (dose: 400.0 mg/kg/injection, schedule: Q01DX009 (ip), vehicle: saline with Tween-80) 88 % of control.
In the case of `Cc1ccc(NC(=S)NC(Cc2ccccc2)c2ccccc2)cc1` (stereo not given), the T/C is, setting by setting: under setting [10], 97 % of control; under setting [11], 94 % of control; under setting [12], 93 % of control; under setting [13], 96 % of control; under setting [14], 102 % of control.
In the case of `CC(C)CN(C)N=Nc1ccc(C(N)=O)cc1`, the T/C under setting [5] was 100 % of control and the T/C under setting [6] is 91 % of control.
As for `CCc1ccc(C(C)=O)o1`, the T/C was 104 % of control under setting [5], 108 % of control under setting [6] and 111 % of control under setting [7].
For the compound `O=C(Nc1ccc(C2=NCCN2)cc1)c1cccc2c(C(=O)Nc3ccc(C4=NCCN4)cc3)cccc12`, the T/C runs as follows: (dose: 9.7 mg/kg/injection, schedule: Q01DX Z (ip), vehicle: carboxymethylcellulose (CMC)) 94 % of control; (dose: 14.6 mg/kg/injection, schedule: Q01DX Z (ip), vehicle: carboxymethylcellulose (CMC)) 107 % of control; (dose: 22.0 mg/kg/injection, schedule: Q01DX Z (ip), vehicle: carboxymethylcellulose (CMC)) 122 % of control; (dose: 30.0 mg/kg/injection, schedule: Q01DX Z (ip), vehicle: carboxymethylcellulose (CMC)) 156 % of control; (dose: 33.0 mg/kg/injection, schedule: Q01DX Z (ip), vehicle: carboxymethylcellulose (CMC)) 124 % of control; (dose: 49.0 mg/kg/injection, schedule: Q01DX Z (ip), vehicle: carboxymethylcellulose (CMC)) 155 % of control. Besides, the T/C reads like this: (dose: 60.0 mg/kg/injection, schedule: Q01DX Z (ip), vehicle: carboxymethylcellulose (CMC)) 204 % of control; (dose: 74.0 mg/kg/injection, schedule: Q01DX Z (ip), vehicle: carboxymethylcellulose (CMC)) 155 % of control; (dose: 111.0 mg/kg/injection, schedule: Q01DX Z (ip), vehicle: carboxymethylcellulose (CMC)) 176 % of control; (dose: 120.0 mg/kg/injection, schedule: Q01DX Z (ip), vehicle: carboxymethylcellulose (CMC)) 175 % of control.
Turning to `CNS(=O)(=O)c1ccc(C(N)=S)cc1`, the T/C was 93 % of control (dose: 100.0 mg/kg/injection, schedule: Q01DX001 (ip), vehicle: gum acacia); 106 % of control (dose: 200.0 mg/kg/injection, schedule: Q01DX001 (ip), vehicle: gum acacia); 98 % of control (dose: 400.0 mg/kg/injection, schedule: Q01DX001 (ip), vehicle: gum acacia).
In the case of `O=C(NCCCl)NC1CCSc2ccccc21` (stereo not given), the T/C is 101 % of control (dose: 100.0 mg/kg/injection, schedule: Q04DX003 (ip), vehicle: saline with Tween-80) and 95 % of control (dose: 200.0 mg/kg/injection, schedule: Q04DX003 (ip), vehicle: saline with Tween-80).
`O=C(CCN1CCCCC1)c1ccc([N+](=O)[O-])cc1`: the T/C under setting [2] is 103 % of control.
Take `C#CCOCC1CN(c2ccccc2)C(=O)O1` (stereo not given): the T/C by setting is: under setting [10], 100 % of control; under setting [15], 101 % of control; under setting [11], 100 % of control; under setting [12], 92 % of control; under setting [13], 91 % of control; under setting [14], 103 % of control.
As for `Cc1cc(NC(=O)C(=O)Nc2cc(C)on2)no1`, the T/C is 93 % of control under setting [10], 100 % of control under setting [11] and 93 % of control under setting [13].
For `O=C(NCCCCNC(=O)Nc1ccc(C2=NCCN2)cc1)Nc1ccc(C2=NCCN2)cc1`, the T/C was 88 % of control (dose: 8.0 mg/kg/injection, schedule: Q01DX Z (ip), vehicle: carboxymethylcellulose (CMC)); 92 % of control (dose: 16.0 mg/kg/injection, schedule: Q01DX Z (ip), vehicle: carboxymethylcellulose (CMC)); 101 % of control (dose: 31.0 mg/kg/injection, schedule: Q01DX Z (ip), vehicle: carboxymethylcellulose (CMC)); 123 % of control (dose: 62.0 mg/kg/injection, schedule: Q01DX Z (ip), vehicle: carboxymethylcellulose (CMC)); 112 % of control (dose: 125.0 mg/kg/injection, schedule: Q01DX Z (ip), vehicle: carboxymethylcellulose (CMC)).
With `O=C(O)/C=C\C(=O)Nc1ccc(Cc2ccc(NC(=O)/C=C\C(=O)O)cc2)cc1`, the T/C runs as follows: under setting [1], 115 % of control; under setting [15], 95 % of control; under setting [2], 103 % of control; under setting [12], 100 % of control; under setting [3], 103 % of control; under setting [14], 97 % of control.
Regarding `C(=Nc1ccc(-c2ccccc2)cc1)c1ccccc1`, the T/C under setting [4] is 105 % of control; the T/C (dose: 50.0 mg/kg/injection, schedule: Q01DX009 (ip), vehicle: saline with Tween-80) was 97 % of control; the T/C under setting [9] was 92 % of control.
In the case of `Cc1cc(-c2ccccc2)c2ccccc2c1N(CC(=O)O)S(=O)(=O)c1ccccc1`, the T/C is, setting by setting: under setting [9], 105 % of control; (dose: 100.0 mg/kg/injection, schedule: Q04DX003 (ip), vehicle: saline) 98 % of control; (dose: 200.0 mg/kg/injection, schedule: Q01DX009 (ip), vehicle: saline with Tween-80) 93 % of control; (dose: 200.0 mg/kg/injection, schedule: Q04DX003 (ip), vehicle: saline) 104 % of control; (dose: 400.0 mg/kg/injection, schedule: Q04DX003 (ip), vehicle: saline) 102 % of control.
For the compound `CC(C)(SCCc1ccncc1)C(N)C(=O)O` (stereo not given), the T/C is, setting by setting: under setting [15], 97 % of control; under setting [12], 92 % of control; under setting [14], 94 % of control.
On to `Cc1cc(=O)[nH]c(N/N=C/c2c(O)ccc3ccccc23)n1`, for which the T/C is 96 % of control under setting [1], 94 % of control under setting [2] and 89 % of control under setting [3].
